We go through one molecule from patent US20250213596A1, “CANNABINOID-CONTAINING COMPOSITIONS” (BUZZELET DEVELOPMENT AND TECHNOLOGIES LTD., priority 2022, published 2025).

The nature of the data set: Flowability / transfer of the product from vessel to vessel. As to conditions: as obtained, ambient temperature. In kind it is physicochemical. The text has this: As used herein, the term “flowable” with regard to a composition is intended to mean that a majority of particles of the composition have the ability to move freely relative to an inner surface of a vessel in which they are contained.
Purified THC at 99% purity (dronabinol) was used.
A product comprising 66% silica and 33% THC was formed. It felt dry and was free flowing. It transferred fully from one vessel to another.

SMILES strings stand for the structures.

Regarding `CCCCCc1cc(O)c2c(c1)OC(C)(C)[C@@H]1CCC(C)=C[C@@H]21` [dronabinol], the “flowability of the material (pourable / free flowing)” value was “could not be poured out of its container”.
